For data set [1], the system named is d42-Gal4;UAS-nSyb-GFPxUAS-C9orf72polyGR36 flies. The experiment in a line: Fly sleep behavior, C9orf72 ALS model. In kind it is in vivo, Drosophila melanogaster. As to the method: The base for the food was a cornmeal agar product, Nutri-fly BF (Genesee Scientific, Box of 10, 1-liter bags, Cat #66-112). In a 2 L beaker, 1 L of ultrapure water was heated to […], with the stir bar speed set to 600. To the beaker, one bag of Nutri-fly BF was added in small portions. The beaker was covered to maintain temperature (monitored with an inserted thermometer) while stirring as rapidly as possible until the temperature reached 97° C. The food was stirred at this temperature for 10 minutes using a wooden spoon/spatula, then allowed to cool to approximately 65° C. with continuous stirring (magnetic bar). At 65° C., while maintaining constant stirring, 12 mL of Tegosept was added followed by 7 mL of propionic acid solution. To be used as fly maintenance food, the food was allowed to cool to 55° C. and 4 mL of the food was aliquoted (to a depth of approximately 1 inch) into individual vials with mity drosophila plugs (VWR #75813-162 and #10054-506). For use as a drug delivery vehicle, the food was allowed to cool to room temperature while covered with aluminum foil, then sealed with parafilm stored at 4° C. To prepare the food for drug delivery, the food was homogenized at room temperature with an immersion blender. To prepare the drug-infused-food, about half of the calculated food, accurately measured, was added to a 250 mL beaker, followed by the drug (no carrier solvent is used). The drug was then covered with the rest of the food and the contents of the beaker were thoroughly mixed with an overhead mixer (with shroud removed) until the drug was distributed homogeneously within the food. The food was then distributed in 4.00 g aliquots to the vials with plugs (described above). The food-containing vials were centrifuged in 50 mL tubes at an appropriate speed (approximately 1000 to 1400 g) to just force the “drug food” to the bottom of the feeding vial. The vials were closed with the cotton mity plug until use.
Test flies were transferred individually, under CO2 anesthesia, into 5 mm×65 mm (outside diameter×length) polycarbonate recording tubes with either minimal media or normal fly food on one end and yarn plugs on the other. Sleep parameters were continuously evaluated using the TriKinetics Drosophila activity monitoring system. Sleep is defined as 5 min or more of continuous inactivity, the minimum amount of time to qualify as a single sleep bout. Zeitgeber time (ZT) 0 is defined as the time of lights on and ZT12 is defined as the time of lights off. Mobility (activity) was also monitored and data tabulated based on the number of beam counts and diurnal variations were calculated. The sleep and mobility data were collected and analyzed.

Another data set deals with RG2 glioma cells. The experiment in a line: Autophagic flux assay (LC3-II western blot in the presence of bafilomycin-A1). It counts as cell-based, rat. As to the method: In the assay, cells are treated with subtoxic concentrations of bafilomycin-A, which blocks lysosomal acidification. This prevents autophagosome fusion with lysosomes at a specific point. For example, RG2 glioma cells (or other cell types) are “clamped” by addition of 10-50 nM bafilomycin-A1 to block autophagosome fusion with lysosomes and eliminate autophagy clearance. Then, autophagy flux is measured by the conjugation of phosphatidylethanolamine to LC3-I, yielding an electrophoretically separable LC3-II by western blot. LC3-II acts as a link between nascent autophagosomes and cargo being directed into these structures. An autophagy enhancer will increase LC3-II in the presence of bafilomycin, whereas a compound that inhibits autophagy completion will not do so. Thus, the L3A-I to LC3A-II conversion in the presence of bafilomycin-A1 constitutes a valid measure of autophagy.
For the assays, rat glioma cells RG2 (ATCC® CRL-2433™; RG2 cells) were cultured. […] The cells were then incubated for an additional 4 h. At termination, the cell culture medium was removed, cells were washed with PBS and lysed on ice in Pierce RIPA buffer containing protease and phosphatase inhibitors.
Western Blotting: The proteins were electrophoresed and wet-blotted to polyvinylidine difluoride membranes, blocked overnight in 4% bovine serum albumin, and developed using antibodies obtained from Cell Signaling Technology (L3A: cat #. 4599; ULK1: cat #. 8054, ULK1(p757): cat #. 6880).
RG2 glioma cells were treated without drug (first column in FIG. 8A) or 4 h with 50 nM bafilomycin-A1 (BAF), the indicated concentration of LK, or the phosphonate analog 2-isopropyl-LK-3-phosphonate. The western blot results are shown in FIG. 8A, where the lower band corresponds to LC3-II. An increase in the intensity of this band in the presence of bafilomycin-A1 indicates increased autophagic flux. […] Similar results are shown in FIG. 9 with respect to the LK-P compound 2-butyl-lanthionine-phosphonate (also referred to as 2-n-butyl-lanthionine-phosphonate or 2-n-butyl-LK-P).
RG2 glioma cells (American Tissue Type Collection, ATTC, Rockville MD USA) were treated for 4 h with 50 nM bafilomycin-A1 (previously dissolved to 1000× final concentration in dimethylsulfoxide). Thirty minutes after addition of bafilomycin, cells were treated with test agents at 100× final concentration. Cells were lysed in RIPA buffer containing protease and phosphatase inhibitors. Protein concentration was assayed and normalized to constant values (typically 5-7 mg/mL). Proteins were electrophoresed across 4-20% polyacrylamide gels and wet blotted onto polyvinylidine difluoride (PVDF) membranes. Proteins were blotted with commercially available antibodies against LC3.

Data set [2] has as its system gmr-Gal4;UAS-C9orf72polyGR36 flies. The experiment in a line: Fly eye neurodegeneration assay, C9orf72 ALS model. It counts as in vivo, Drosophila melanogaster. As to the method: The base for the food was a cornmeal agar product, Nutri-fly BF (Genesee Scientific, Box of 10, 1-liter bags, Cat #66-112). In a 2 L beaker, 1 L of ultrapure water was heated to […], with the stir bar speed set to 600. To the beaker, one bag of Nutri-fly BF was added in small portions. The beaker was covered to maintain temperature (monitored with an inserted thermometer) while stirring as rapidly as possible until the temperature reached 97° C. The food was stirred at this temperature for 10 minutes using a wooden spoon/spatula, then allowed to cool to approximately 65° C. with continuous stirring (magnetic bar). At 65° C., while maintaining constant stirring, 12 mL of Tegosept was added followed by 7 mL of propionic acid solution. To be used as fly maintenance food, the food was allowed to cool to 55° C. and 4 mL of the food was aliquoted (to a depth of approximately 1 inch) into individual vials with mity drosophila plugs (VWR #75813-162 and #10054-506). For use as a drug delivery vehicle, the food was allowed to cool to room temperature while covered with aluminum foil, then sealed with parafilm stored at 4° C. […] To prepare the drug-infused-food, about half of the calculated food, accurately measured, was added to a 250 mL beaker, followed by the drug (no carrier solvent is used). […]

Entries after “also recorded” stand apart in the source; their conditions may differ.

Turning to `CCCCCCC1=C(P(=O)(O)O)N[C@H](C(=O)OCC)CS1` [2-n-hexyl-LKE-P], the “daytime sleeping time of control flies” value in data set [1] (d42-Gal4: UAS-nSyb-GFPxUAS-W1118 control flies) is “did not change the daytime sleeping time of control flies”. Further, in data set [1] (polyGR36 in motor neurons), the “number of sleep bouts during the day” value was “decreased the number of sleep bouts during the day” and the total sleep time result is listed as “increased total sleep time”. Besides, the “daytime sleepiness / daytime sleeping time of mutant flies” value in data set [1] (polyGR36 in motor neurons, drug in food throughout development) is recorded as “decreased the daytime sleeping time of mutant flies; also recorded: rescued the daytime sleepiness”. Further, in the data set with RG2 glioma cells (RG2 cells, FIG. 32A), the “concentration at which the compound is potent in stimulating autophagy” value was 0.1 µM and the “potency relative to known results for LKE” value is “approximately 10 fold”. Besides, the “autophagic flux / autophagy stimulation (LC3-II band in the presence of bafilomycin-A1)” value in the data set with RG2 glioma cells (RG2 glioma cells, 4 h, 50 nM bafilomycin-A1, western blot) is reported as “stimulate autophagy in RG2 cells”. Moreover, in data set [2] (GR dipeptides at repeat number of 100 in the eyes), the “failure to eclose from the pupa” value is “not able to rescue this phenotype”. Moreover, the eye phenotype result in data set [2] (polyGR36 in eyes, 1 and 2 mM in food throughout lifespan) is “alleviate the eye phenotype in a concentration-dependent manner”.
